This is an account of results in patent publication US9808470B2, “Estrogenic components for use in the treatment of neurological disorders” (UNIVERSITE DE LIEGE, priority 2012, dated 2017).

Experiment [1] has as its system Microtubule-associated protein 2 (MAP2). Kind of experiment: Ex.3 neuroprotective HIE rat model: MAP2 staining. The class given is in vivo. As to conditions: PND14. The procedure:
The brain sections were processed for immunohistochemical detection of neuronal cytoskeletal disruption. For antigen retrieval, the sections were heated in 10 mmol/L citrate buffer (pH 6.0) at 100° C. for 10 minutes. Endogenous peroxidase activity was blocked with 3% hydrogen peroxide for 10 minutes and after a second blocking with 5% normal goat serum, the sections were incubated with anti-microtubule-associated protein 2 (MAP2) antibody, diluted 1:1000 (mouse monoclonal antibody; Sigma, St. Louis, Mo., US) 1 h at room temperature. After rinsing, biotinylated goat anti-mouse immunoglobulin G (Vector Laboratories, Burlingame, Calif.) was added, and antibody detection was performed with the avidin-biotin complex method (Vector Laboratories), with 3,3′-diaminobenzidine (DAB) as the chromogen. Following the reaction with DAB, the slides were washed, dehydrated, and coverslipped.
Samples were analyzed with the aid of an image scanner (Nanozoomer Virtual Microscopy, Hamamatsu, Tokyo, Japan) and the ImageJ software (NIH, US). The MAP2 positive areas in the ipsilateral and contralateral hemispheres were measured. The ratio of the MAP2 positive areas was calculated as the MAP2 positive area of the ipsilateral hemisphere divided by the MAP2 positive area of the contralateral hemisphere. The ratio of the MAP2 positive area in the Sham group was considered by default as 1.0.
Newborn rat pups were assigned to one of the following 6 groups from postnatal day 4: Sham group (n=24), Vehicle group (n=14), E4 1 mg/kg/per day group (n=11), E4 5 mg/kg/per day group (n=14), E4 10 mg/kg/per day group (n=14), or E4 50 mg/kg/per day group (n=19). From postnatal day 4, rat pups were intraperitoneally injected either vehicle (Vehicle group) or E4 (1, 5, 10, or 50 mg/kg/per day in accordance to the E4 group assignment) or neither vehicle nor E4 (Sham group). At day 7, 30 minutes after last injection, animals were anesthetized with isoflurane (induction, 3.0%; maintenance, 1.5%), and the rat pups from Vehicle and E4 groups passed through surgery encompassing left common carotid artery double ligation and cut. After the procedure, the pups were returned to their dams and were allowed to recover for 1 hour. The pups were then placed in the humidified hypoxic in vivo cabinet (CoyLab, Grass Lake, Mich., USA). Hypoxia was produced by the inhalation of 11%-8% of oxygen balanced by nitrogen at decreased concentration of oxygen for 20 minutes, followed by inhalation of 8% oxygen and 92% nitrogen at constant concentration for 35 minutes. All the manipulations were performed at 37° C. The Sham group went through similar procedures without left common carotid artery ligation followed by hypoxia nor injection. […]

Experiment [2] concerns myelin-related mRNA (CNP, MAG, MBP). In words: Ex.6 IL-1β induced diffuse white matter injury mouse model: myelin gene expression at P10 (qRT-PCR). The class given is in vivo. The procedure:
Experimental protocols were approved by the institutional guidelines of the Institut National de la Santé et de la Recherche Scientifique (Inserm, France), and met the guidelines for the United States Public Health Service's Policy on Humane Care and Use of Laboratory Animals (NIH, Bethesda, Md., USA). Experiments were performed using OF1 strain mice purchased from Charles River (L'Arbresle, France) and born in our animal facility. Animals were housed under a 12 h light-dark cycle, had access to food and water ad libitum. Sex was determined at birth and confirmed at sacrifice. To avoid any potential variability linked to sex to differences. only male pups were used. Mice received twice a day from P1 to P4 and once on P5 a 5 μl intraperitoneal injection containing either PBS alone (sham group) or 10 μg/kg/dose recombinant mouse IL-1β in PBS. Vehicle group received only IL-1β injections while 10 μg E4 (5 mg/kg) or 20 μg E4 (10 mg/kg) was added to IL-1β once a day from P1 to P5 for E4 treated groups. Pups were sacrificed 3 hours after the first intraperitoneal injection at P1, 3 hours after last treatment at P5 or at P10 by intracardiac perfusion with NaCl 0.9% after anaesthesia by inhaled isoflurane.
At P10, anterior cortex and underneath white matter were collected and immediately frozen in nitrogen liquid, before storage at −80° C. for study of myelin-related mRNA expression.
Preparation of samples for quantitative reverse-transcriptase polymerase-chain reaction (qRT-PCR), primer design, and PCR protocol, were similar to that previously described (Favrais et al., 2011; Chhor et al., 2013). Briefly, RNA extraction was performed by with RNeasy mini kit according to the manufacturer's instructions (Qiagen, Courtaboeuf, France). RNA quality and concentration were assessed by spectrophotometry with the Nanodrop™ apparatus (Thermoscientific, Wilmington, Del., USA). Total RNA (0.5-1 μg) was subjected to reverse transcription using the iScript™ cDNA synthesis kit (Bio-Rad, Marnes-la-Coquette, France). qPCR was using SYBR Green Supermix (Bio-Rad). The relative expression of genes of interest (GOI) were expressed relative to expression of the reference gene, ribosomal protein L13a (Rpl13a) for CD11b+ cells and Glyceraldehyde 3-phosphate dehydrogenase (GAPDH) for O4+ cells and anterior brains based on reference gene suitability testing. Analyses were performed with the Biorad CFX manager 2.1 software. The relative quantities are expressed as the specific ratio between the gene of interest and Rpl13 or GAPDH. The data are presented as relative mRNA units with respect to control values (expressed as a fold-difference with respect to the mean of sham values).
A general note: Real-time PCR tracks product formation cycle by cycle.

As to `C[C@]12CC[C@@H]3c4ccc(O)cc4CC[C@H]3[C@@H]1[C@@H](O)[C@@H](O)[C@@H]2O` [E4, 1,3,5(10)-estratrien-3,15α,16α,17β-tetrol], the “ratio of MAP2-positive area (ipsilateral/contralateral)” value in experiment [1] (1 mg/kg E4 ip PND4-7 before HI) is recorded as 0.929±0.019; in experiment [1] (5 mg/kg E4 ip PND4-7 before HI), 0.889±0.063; in experiment [1] (10 mg/kg E4 ip PND4-7 before HI), 0.898±0.022; in experiment [1] (50 mg/kg E4 ip PND4-7 before HI), 0.922±0.031. Besides, the “CNP mRNA” value in experiment [2] (E4 5 mg/kg, vs IL-1β) is listed as “significant increase”. The “MAG mRNA” value in experiment [2] (E4 5 mg/kg, vs IL-1β) was “significant increase”. The MBP expression entry in experiment [2] (E4 5 mg/kg, vs control group) is on record as “not statistically different”. Also, the “MBP expression, increase” value in experiment [2] (E4 5 mg/kg, vs vehicle group (p=0.11)) was “not significant”. For the same compound, the “expression of myelin genes (MAG, MBP, CNP)” value in experiment [2] (IL-1β+E4 10 mg/kg, vs IL-1β) is given as “No difference”.
